Source: patent US20090264421A1 (priority 2007, published 2009)

What was measured:
[1] = system: freshly collected sorted patient CD138+ myeloma cells; details: ex vivo, 24 hours, trypan blue exclusion
Experimental: FIG. 3. […] Survival indicated in A-E was assessed using a trypan blue exclusion assay, counting viable cells using a hemocytometer after 24 hour exposure to the indicated drugs and drug concentrations.
Patient bone marrow leukocytes were divided into myeloma (CD138+) and non-myeloma/normal leukocyte (CD138−) fractions employing sorting using magnetic bead technology in kit form (MACS CD138 microbeads, Miltenyi Biotech, Auburn, Calif.). Sorted cells were plated in a 96-well tissue culture plate at a concentration of 5×10^5 cells and dosed with indicated drug concentrations for 24 hours. Survival was assessed using a trypan blue exclusion assay.

[2] = system: A549 cells; type: cell-based, human; details: within 1-2 minutes
Source text: Measurement of intra- and extracellular chaetocin levels: Tumor cells treated with indicated chaetocin concentrations were washed twice with ice cold PBS, immediately solubilized in 0.5 M perchloric acid, and evaluated “real time” via HPLC using Beckman System Gold Nouveau Software with a dual pump 125 gradient pump system, 507e autosampler, 168 diode array detector, and Beckman Ultrasphere ODS column (4.6 mm×[…]×7 μm) using the following elution profile: 100% water to 100% methanol linear gradient over 40 minutes, followed by a 10 minute period of elution with 100% methanol. Quantitation was accomplished using a standard curve of peak areas derived from analogous HPLC data using varying concentrations of chaetocin.

[3] = system: U266 myeloma cells; assay: ROS (superoxide) by FACS with hydroethidium in U266 cells; type: cell-based, human; details: 200 nM, p<0.001
Experimental: FIG. 7. […] A549 cells were exposed to the indicated concentration of chaetocin for 24 hours, with addition of glutathione or diluent 30 minutes prior to chaetocin addition. Glutathione levels were assessed by spectrophotometric assay as described below. […] Cells were treated with 10 μM chaetocin for 20 minutes prior to assay, and calculated intracellular chaetocin levels were measured by HPLC with adjusted for differences in average cell volume (calculated from measured cell radii ascertained via light microscopy). Shaded area represents 1 standard deviation confidence interval, with central bar reflecting the mean relative intracellular chaetocin level. […] Cells from 4 myeloma patients were exposed to 200 μM hydrogen peroxide for 24 hours prior to assay, with trypan blue exclusion used to assess surviving cells.
Assessment of cellular oxidative stress: Cellular oxidative stress was assessed utilizing 5,6-chloromethyl-2′,7′-dichlorodihydrofluorescein diacetate or hydroethidium (Molecular Probes/Invitrogen, Carlsbad, Calif.) as cell permeable fluorescent probes and FACS analyses.

[4] = Tolerability of IP chaetocin in mice; type: in vivo, mouse; details: 0.6 mg/kg and 0.25 mg/kg IP twice weekly for two weeks
Experimental: Subsequent in vivo work in mice utilized the following formulation: 0.06 mg/mL chaetocin in 20% PEG400 and 79.14% […] NaCl with 0.86% DMSO as a cosolvent. This system retains in vitro activity in cell culture models.

[5] = target: T1, thioredoxin reductase (Rattus norvegicus, UniProt O89049); assay: Thioredoxin reductase activity assay (gel-based oxidation state of thioredoxin method); type: biochemical
T1 construct: rat liver thioredoxin reductase; purchased Sigma (St. Louis, Mo.); host or cells: rat liver
T1 sequence (O89049 1-499): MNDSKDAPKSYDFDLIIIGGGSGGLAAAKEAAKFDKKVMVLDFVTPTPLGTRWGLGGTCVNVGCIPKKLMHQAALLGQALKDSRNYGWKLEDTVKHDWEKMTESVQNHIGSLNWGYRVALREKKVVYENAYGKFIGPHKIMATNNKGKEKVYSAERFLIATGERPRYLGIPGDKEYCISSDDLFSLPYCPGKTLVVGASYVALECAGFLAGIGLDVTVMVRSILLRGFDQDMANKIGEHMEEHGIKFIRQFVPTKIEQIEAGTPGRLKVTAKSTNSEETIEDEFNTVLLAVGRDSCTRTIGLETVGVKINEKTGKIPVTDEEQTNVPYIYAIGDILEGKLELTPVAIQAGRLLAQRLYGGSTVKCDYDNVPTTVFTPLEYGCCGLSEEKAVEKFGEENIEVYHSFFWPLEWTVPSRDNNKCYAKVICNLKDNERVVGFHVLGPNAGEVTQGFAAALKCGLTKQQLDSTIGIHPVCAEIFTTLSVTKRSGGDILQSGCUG
Experimental: (§1) HeLa cells were obtained from ATCC.
Thioredoxin Reductase Activity Assay (gel-based oxidation state of thioredoxin method): Reduction of thioredoxin by thioredoxin reductase was measured by the decrease in electrophoretic mobility caused by covalent modification of thioredoxin (by AMS) when the disulfide is reduced. […] At the indicated time, a 5 μL sample was removed and immediately added to 5 μL of 30 mM AMS in TE buffer (pH 7.5). The AMS was allowed to react (15 minutes at 22° C.) with reduced thioredoxin sulfhydryl groups, then the samples were mixed with non-reducing sample buffer and were electrophoresed on 18% Tris-HCl SDS-PAGE gels. The gels were stained with Coomassie blue and bands were imaged and quantitated using a Syngene InGenius gel documentation system (Frederick, Md.).

[6] = target: T2, TrxR1 (Rattus norvegicus, UniProt O89049); assay: Thioredoxin reductase activity assay (DTNB method); type: biochemical; set-up: rat liver thioredoxin reductase; purchased Sigma (St. Louis, Mo.); details: cell-free; read-out: IC50, TrxR1-initiated turnover of DTNB
T2 sequence (O89049 1-499): T1 sequence (O89049 1-499)
Experimental: as §1
Final concentrations were 0.0005 U/μL of enzyme and 0.24 mM NADPH in the presence of chaetocin as indicated in a 100 μL reaction. The reaction was started by the addition of DTNB (3 mM) and the change in absorbance at 405 nm was monitored in a plate reader. Activity was calculated as the increase in absorbance between 2 and 5 min after DTNB addition.

[7] = target: T2, TrxR1; type: biochemical; set-up: rat liver thioredoxin reductase; purchased Sigma (St. Louis, Mo.); details: mass spectroscopy; data not shown
Experimental: Samples were allowed to react at 22° C. for 15 min and then processed for analysis by desalting and fractionating using C18 ZipTips (Millipore Corporation, Bedford, Mass.). For the DTT/chaetocin reaction, the reaction proceeded for 20 min and was then spun down to remove precipitated insulin before loading onto ZipTips. ZipTips were conditioned with 60% acetonitrile:39% water:1% acetic acid and equilibrated with 1% acetic acid. Samples were acidified with glacial acetic acid and loaded onto an equilibrated ZipTip and washed with 1% acetic acid. Fractions were step-eluted off the ZipTip using 10 μl of 1% acetic acid in water containing 20, 30, 40, or 60% acetonitrile. Collected fractions were injected by loop injection (2 μl) directly into the mass spectrometer using a mobile phase of 30% acetonitrile:69% water:1% acetic acid at 5 μl/min. Mass spectra were collected on an Agilent Technologies LC/MSD-TOF mass spectrometer in positive electrospray ionization mode over a m/z range of 400 to 1500. The capillary, fragmentor, skimmer, and OCT RF voltages (3500, 185, 60, 200 volts, respectively) were optimized to enhance signal and minimize instrument fragmentation.

CN1C(=O)[C@@]23C[C@]4([C@]56C[C@@]78SS[C@@](CO)(C(=O)N7[C@H]5Nc5ccccc56)N(C)C8=O)c5ccccc5N[C@@H]4N2C(=O)[C@]1(CO)SS3 [chaetocin]
effect on matched CD138- normal bone marrow leukocytes [1]: largely sparing | intracellular accumulation relative to applied extracellular concentration [2]: 10 fold | peak shift (ROS, hydroethidium) relative to stained, untreated cells [3]: 43.26+3.67 | GI toxicity [4]: some GI toxicity was noted | tolerability [4]: tolerated | inhibition of reduction of thioredoxin by thioredoxin reductase ([5]; gel-based, AMS modification): inhibit the ability of TrxR1 to reduce Trx | IC50 ([5]; initial linear portion of the reaction, read-out: IC50, reduction of thioredoxin by thioredoxin reductase): 4 µM | IC50 [6]: ~4 µM | covalent adduct with TrxR1 [7]: no evidence of a covalent chaetocin-TrxR1 adduction
